Measured values as given in patent publication US9752110B2, “Method and compositions of preserving wine” (YSDR, LLC, priority 2008, dated 2017).

How the values were obtained:
[1] = tested on: eNOS; settings: cited from earlier work
[2] = tested on: bacteria and fungi in wine; settings: cited from earlier work
[3] = tested on: acetobacter xilum; test: Antibacterial specificity: acetobacter
[4] = tested on: lactobacilus; test: Antibacterial specificity: lactobacilli
[5] = cited from earlier work
[6] = tested on: malolactic conversion; test: Effect on malolactic conversion in wine
Text: Another important process in wine-making is the Malolactic fermentation. Malic acid is naturally present in the grape must, but it adds an unpleasant taste to the wine. […] As discussed above, nearly all red wines undergo malolactic fermentation. As discussed above, the conversion is usually carried out by introducing a lactobacteria (most commonly the Oenococus-Oeni lactobacteria) to the wine after an initial fermentation step. […] Therefore, in wine preserved with resveratrol and/or pterostilbene, the malolactic fermentation can take place during the initial alcohol-fermentation process. That is, no separate step of malic and lactic fermentation needs to be carried out when wine is preserved with resveratrol and/or pterostilbene.

Molecule | eNOS expression or eNOS promoter activity [1] | also measured
COc1cc(C=CC(=O)O)cc(OC)c1O (stereo in doubt) [sinapinic acid] | did not change | 
Oc1ccc(/C=C/c2cc(O)cc(O)c2)cc1 [Resveratrol, 3,4′,5-trihydroxy-trans-stilbene] | most efficacious stimulator | antibacterial and antifungal activity in wine [2]: antibacterial and antifungal activity; inhibition of acetobacter xilum [3]: specific inhibitor; anti-bacterial properties against lactobacilus [4]: no anti-bacterial properties
O=C(O)c1ccccc1 [benzoic acid] | enhanced eNOS expression moderately | 
O=C(O)/C=C/c1ccc(O)c(O)c1 [caffeic acid] | enhanced eNOS expression moderately | 
COc1cc(/C=C/C(=O)O)ccc1O [ferulic acid] | did not change | 
O=c1c(O)c(-c2ccc(O)c(O)c2)oc2cc(O)ccc12 [fisetin] | did not change | 
O=C(O)c1cc(O)c(O)c(O)c1 [gallic acid] | did not change | 
O=c1c(O)c(-c2cc(O)c(O)c(O)c2)oc2cc(O)cc(O)c12 [myricetin] | did not change | 
O=C(O)/C=C/c1ccc(O)cc1 [p-coumaric acid] | enhanced eNOS expression moderately | 
COc1cc(/C=C/c2ccc(O)cc2)cc(OC)c1 [pterostilbene, 4-[(E)-2,(3,5-dimethoxyphenyl)ethenyl]phenol] |  | water solubility [5]: less water soluble than resveratrol
COc1cc(C(=O)O)ccc1O [vanillic acid] | enhanced eNOS expression moderately | 
catechin | did not change | 
sulfur dioxide [SO2] |  | effect on malolactic conversion [6]: suppress the malolactic conversion
